Patent US10865191B2, “Heterocyclic compounds useful as modulators of TNF alpha” (BRISTOL-MYERS SQUIBB COMPANY, priority 2015, dated 2020)
Read-outs that look alike come from different tables or passages of the source.

Biological target: TNFα (Homo sapiens, UniProt P01375)
Assay: TNF induced HEK-Blue assay (NF-kB-driven secreted alkaline phosphatase reporter)
Type: cell-based
Settings: TNFα 0.5 ng/mL, HEK-Blue-CD40L cells, 18 h
Summary of the method: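 HEK-Blue-CD40L cells (NF-kB-driven SEAP reporter), 20,000/well, added after 30 min pre-incubation of compound (0.004–25 μM final) with TNFα 0.5 ng/mL final at 37 °C; 18 h incubation. SEAP read with QUANTI-Blue at 620 nm; IC50 from 4-parameter logistic fit, normalized to unstimulated and stimulated DMSO controls.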

[1] = read-out: TNF induced HEK-Blue assay IC50 value
[2] = TNF induced HEK-Blue assay IC50 value

Chain of TNFα (P01375 77-233 limits assumed): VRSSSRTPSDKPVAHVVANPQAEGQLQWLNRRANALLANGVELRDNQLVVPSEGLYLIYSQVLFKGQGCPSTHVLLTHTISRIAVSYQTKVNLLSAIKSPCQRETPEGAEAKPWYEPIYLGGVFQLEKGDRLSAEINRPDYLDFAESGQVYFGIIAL

Row | IC50 [1] [nM] | IC50 [2] [nM] | Structure (SMILES)
1 | 1000 to 10000 | – | C[C@@H](Nc1c(Cl)cnc2ccc(-c3cnc(C(C)(C)O)nc3)cc12)c1cc(C2=CCN(C(=O)OC(C)(C)C)CC2)ccc1F [Example 337, tert-butyl (R)-4-(3-(1-((3-chloro-6-(2-(2-hydroxypropan-2-yl)pyrimidin-5-yl)quinolin-4-yl)amino)ethyl)-4-fluorophenyl)-3,6-dihydropyridine-1(2H)-carboxylate]
2 | – | 1000 to 10000 | CC(Nc1c(Cl)cnc2cc(F)c(-c3cnc(C(C)(C)O)nc3)cc12)c1ccccc1F (stereo not drawn) [Example 250, 2-(5-(3-chloro-7-fluoro-4-((1-(2-fluorophenyl)ethyl)amino)quinolin-6-yl)pyrimidin-2-yl)propan-2-ol]
3 | 10000 to 25000 | – | CC(Nc1c(Cl)cnc2ccc(-c3cnc(C(C)(C)O)nc3)cc12)[C@H]1CCCNC1 (single isomer, unassigned) [Example 96]
4 | < 1000 | – | C[C@@H](Nc1c(Cl)cnc2ccc(-c3ccc(C4(N)CCC4)cc3)cc12)c1ccccc1F [Example 118, (R)-6-(4-(1-aminocyclobutyl)phenyl)-3-chloro-N-(1-(2-fluorophenyl)ethyl)quinolin-4-amine]
5 | 10000 to 25000 | – | C[C@@H](Nc1c(Cl)cnc2ccc(-c3ccc(CO)cc3)cc12)c1ccccc1F [Example 220, (R)-(4-(3-chloro-4-((1-(2-fluorophenyl)ethyl)amino)quinolin-6-yl)phenyl)methanol]
6 | – | < 1000 | C[C@@H](Nc1c(Cl)cnc2ccc(-c3ccc(C(C)(C)O)cc3)cc12)c1ccccc1F [Example 228, (R)-2-(4-(3-chloro-4-((1-(2-fluorophenyl)ethyl)amino)quinolin-6-yl)phenyl)propan-2-ol]
7 | < 1000 | – | CC(Nc1c(Cl)cnc2ccc(-c3ccc(C(C)(C)O)cc3)cc12)c1ccccn1 (racemic) [Example 175, 2-(4-(3-chloro-4-((1-(pyridin-2-yl)ethyl)amino)quinolin-6-yl)phenyl)propan-2-ol]
8 | 10000 to 25000 | – | CC(Nc1c(Cl)cnc2cc(F)c(-c3cnc(C(C)(O)CO)nc3)cc12)c1ccccc1F (stereo not drawn) [Example 259, 2-(5-(3-chloro-7-fluoro-4-((1-(2-fluorophenyl)ethyl)amino)quinolin-6-yl)pyrimidin-2-yl)propane-1,2-diol]
9 | < 1000 | – | CCN(Cc1c(Cl)cnc2ccc(-c3cnc(C(C)(C)O)nc3)cc12)c1ccccc1F [Example 68, 2-(5-(3-chloro-4-((ethyl(2-fluorophenyl)amino)methyl)quinolin-6-yl)pyrimidin-2-yl)propan-2-ol]
10 | < 1000 | – | Cc1nc2ccc(-c3cnc(C(C)(C)O)nc3)cc2c(NC(C)c2ccccc2F)c1Cl (racemic) [Example 218, 2-(5-(3-chloro-4-((1-(2-fluorophenyl)ethyl)amino)-2-methylquinolin-6-yl)pyrimidin-2-yl)propan-2-ol]
11 | 1000 to 10000 | – | C[C@@H](Nc1c(Cl)cnc2ccc(-c3cnc(C(C)(C)O)nc3)cc12)c1cc(-c2cnn(CC(=O)O)c2)ccc1F [Example 346, (R)-2-(4-(3-(1-((3-chloro-6-(2-(2-hydroxypropan-2-yl)pyrimidin-5-yl)quinolin-4-yl)amino)ethyl)-4-fluorophenyl)-1H-pyrazol-1-yl)acetic acid]
12 | < 1000 | – | C=CC(=O)N(C)c1ncc(-c2ccc3ncc(Cl)c(N[C@H](C)c4ccccc4F)c3c2)cn1 [Example 124, (R)—N-(5-(3-chloro-4-((1-(2-fluorophenyl)ethyl)amino)quinolin-6-yl)pyrimidin-2-yl)-N-methylacrylamide]
13 | < 1000 | – | C[C@@H](Nc1c(Cl)cnc2ccc(-c3cnc(C(C)(C)O)nc3)cc12)c1cc(-n2cccn2)ccc1F [Example 366, (R)-2-(5-(3-chloro-4-((1-(2-fluoro-5-(1H-pyrazol-1-yl)phenyl)ethyl)amino)quinolin-6-yl)pyrimidin-2-yl)propan-2-ol]

Further lines, the compound ahead of its results:

Row | Structure (SMILES) | IC50 [1] [nM] | IC50 [2] [nM]
14 | Cc1nc2cc(F)c(-c3cnc(N4CCNC(=O)C4)nc3)cc2c(N[C@H](C)c2cc(C(N)=O)ccc2F)c1Cl [Example 448, (R)-3-(1-((3-chloro-7-fluoro-2-methyl-6-(2-(3-oxopiperazin-1-yl)pyrimidin-5-yl)quinolin-4-yl)amino)ethyl)-4-fluorobenzamide] | < 1000 | –
15 | CC(Nc1c(Cl)cnc2cc(F)c(-c3cnc(N4C[C@H]5CC[C@@H](C4)C5C(=O)O)nc3)cc12)c1ccccc1F (single isomer, unassigned) [Example 611] | < 1000 | –
16 | CCOC(=O)C1CCN(c2ncc(-c3cc4c(NC(C)c5ccccc5F)c(Cl)cnc4cc3F)cn2)CC1 (single isomer, unassigned) [Example 243, ethyl-1-(5-(3-chloro-7-fluoro-4-((1-(2-fluorophenyl)ethyl)amino)quinolin-6-yl)pyrimidin-2-yl)piperidine-4-carboxylate] | < 1000 | –
17 | Cc1ccc(C)c(Nc2c(F)c(C)nc3ccc(-c4cnc(C(C)(C)O)nc4)cc23)c1 [Example 183, 2-(5-(4-((2,5-dimethylphenyl)amino)-3-fluoro-2-methylquinolin-6-yl)pyrimidin-2-yl)propan-2-ol] | < 1000 | –
18 | OC[C@@H]1CN(c2ncc(-c3ccc4ncc(Cl)c(N[C@@H](c5ccccc5F)C(F)F)c4c3)cn2)CCN1 [Example 86, ((S)-4-(5-(3-chloro-4-(((S)-2,2-difluoro-1-(2-fluorophenyl)ethyl)amino)quinolin-6-yl)pyrimidin-2-yl)piperazin-2-yl)methanol] | < 1000 | –
19 | Cc1nc2ccc(-c3cnc(C(C)(C)O)nc3)cc2c(N[C@H](C)c2cc(N3CCNC3=O)ccc2F)c1Cl [Example 373, (R)-1-(3-(1-((3-chloro-6-(2-(2-hydroxypropan-2-yl)pyrimidin-5-yl)-2-methylquinolin-4-yl)amino)ethyl)-4-fluorophenyl)imidazolidin-2-one] | < 1000 | –
20 | Cc1nc2cc(F)c(-c3cnc(C(C)(C)O)nc3)cc2c(N[C@H](C)c2cc(OCCCO)ccc2F)c1Cl [Example 443, (R)-3-(3-(1-((3-chloro-7-fluoro-6-(2-(2-hydroxypropan-2-yl)pyrimidin-5-yl)-2-methylquinolin-4-yl)amino)ethyl)-4-fluorophenoxy)propan-1-ol] | < 1000 | –
21 | Cc1nc2ccc(-c3cnc(C(C)(C)O)nc3)cc2c(N[C@H](C)c2cc(C(C)O)ccc2F)c1Cl (mixture of isomers) [Example 433, 2-(5-(3-chloro-4-(((1R)-1-(2-fluoro-5-(1-hydroxyethyl)phenyl)ethyl)amino)-2-methylquinolin-6-yl)pyrimidin-2-yl)propan-2-ol] | < 1000 | –
22 | CC(C)(O)c1ncc(-c2nc3c(N[C@@H](c4cc(C#N)ccc4F)C(F)F)c(Cl)cnc3cc2F)cn1 [Example 498, (S)-3-(1-((3-chloro-7-fluoro-6-(2-(2-hydroxypropan-2-yl)pyrimidin-5-yl)-1,5-naphthyridin-4-yl)amino)-2,2-difluoroethyl)-4-fluorobenzonitrile] | < 1000 | –
23 | Cc1nc2ccc(-c3cnc(C(C)(C)O)nc3)cc2c(N[C@H](c2cc(Br)ccc2F)C(F)F)c1Cl [Example 321, (R)-2-(5-(4-((1-(5-bromo-2-fluorophenyl)-2,2-difluoroethyl)amino)-3-chloro-2-methylquinolin-6-yl)pyrimidin-2-yl) propan-2-ol] | 10000 to 25000 | –
24 | C[C@@H](Nc1c(Cl)cnc2cc(F)c(-c3cnc(C(C)(C)O)nc3)nc12)c1cc(C#N)ccc1F [Example 590, (R)-3-(1-((3-chloro-7-fluoro-6-(2-(2-hydroxypropan-2-yl)pyrimidin-5-yl)-1,5-naphthyridin-4-yl)amino)ethyl)-4-fluorobenzonitrile] | < 1000 | –
